pIC50: −log10 of the molar value. Like-named read-outs stand apart in the source and are kept apart here.
How the values were obtained:
[1] = target: T1, melatonin ML-1; assay: ML1 binding affinity, chicken brain; conditions: Table 1; chicken brain
T1 construct: chicken brain
Procedure: (§1) Each of those receptors were analyzed by methods known in the art. Initial assessment of binding at 100×10^−7 M (10 micro molar) was performed in duplicate.

[2] = target: melatonin ML-1; assay: ML1 binding affinity, chicken brain; conditions: Table 2; relative potency compared to CCB
Procedure: as §1

[3] = target: T2, 5-HT2B receptor (Homo sapiens, UniProt P41595); assay: 5-HT2B binding affinity, human recombinant-CHO cells, 5-HT as control (Bonhaus); conditions: for pIC50: agonist 5-HT2B receptor
T2 construct: expressed in transfected cells; host or cells: CHO cells
T2 sequence (P41595 whole entry): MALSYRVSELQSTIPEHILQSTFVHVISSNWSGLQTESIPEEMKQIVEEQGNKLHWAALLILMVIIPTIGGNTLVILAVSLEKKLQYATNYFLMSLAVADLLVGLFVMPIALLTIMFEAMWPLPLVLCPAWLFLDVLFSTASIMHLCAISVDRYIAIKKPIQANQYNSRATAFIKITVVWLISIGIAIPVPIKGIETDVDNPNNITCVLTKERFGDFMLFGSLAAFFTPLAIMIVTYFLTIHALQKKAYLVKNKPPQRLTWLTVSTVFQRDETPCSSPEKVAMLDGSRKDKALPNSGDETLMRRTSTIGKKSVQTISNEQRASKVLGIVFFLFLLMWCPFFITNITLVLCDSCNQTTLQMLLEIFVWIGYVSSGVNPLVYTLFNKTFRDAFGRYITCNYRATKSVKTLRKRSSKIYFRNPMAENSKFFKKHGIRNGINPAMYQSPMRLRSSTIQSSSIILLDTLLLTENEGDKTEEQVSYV
Procedure: as §1

[4] = target: T3, MT2 receptor (Homo sapiens, UniProt P49286); conditions: at 100×10^−7 M
T3 sequence (P49286 1-362): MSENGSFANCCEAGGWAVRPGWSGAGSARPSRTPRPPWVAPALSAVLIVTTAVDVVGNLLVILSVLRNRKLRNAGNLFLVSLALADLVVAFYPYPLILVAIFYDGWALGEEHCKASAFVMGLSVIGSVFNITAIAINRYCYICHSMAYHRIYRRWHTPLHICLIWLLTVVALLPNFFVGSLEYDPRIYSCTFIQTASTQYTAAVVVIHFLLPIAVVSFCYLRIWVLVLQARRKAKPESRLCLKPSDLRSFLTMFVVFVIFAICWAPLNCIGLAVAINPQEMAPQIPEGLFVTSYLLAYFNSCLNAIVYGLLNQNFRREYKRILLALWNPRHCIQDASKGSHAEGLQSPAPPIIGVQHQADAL
Procedure: as §1

[5] = target: melatonin MT-1 sub-receptor (Homo sapiens, UniProt P48039); conditions: Table 7
melatonin MT-1 sub-receptor, sequence (P48039 whole entry): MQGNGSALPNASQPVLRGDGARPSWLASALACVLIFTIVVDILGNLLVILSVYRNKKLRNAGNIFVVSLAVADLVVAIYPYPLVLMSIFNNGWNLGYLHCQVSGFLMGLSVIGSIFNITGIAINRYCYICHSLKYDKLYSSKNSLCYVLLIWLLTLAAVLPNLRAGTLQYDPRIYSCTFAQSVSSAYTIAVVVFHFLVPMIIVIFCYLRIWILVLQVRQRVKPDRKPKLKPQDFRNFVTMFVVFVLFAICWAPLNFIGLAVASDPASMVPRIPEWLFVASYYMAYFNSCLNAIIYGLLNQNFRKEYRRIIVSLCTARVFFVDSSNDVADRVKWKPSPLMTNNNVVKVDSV
Procedure: as §1

For `COC(=O)C1=C(C)NC(C)=C(C(=O)OC(C)C)C1c1cccc2nonc12` (centres unmarked) [Isradipine], the pIC50 [1] was 5.70, the “(IC50: ML-1)/(IC50: CCB)” value [2] was 4,348 and the pIC50 ([3]; Table 1) was under 5.00. For the same molecule, the “percentage of binding 5-HT2B” value ([3]; Table 1, at 100×10^−7 M) was 3% and the “(IC50: 5-HT2B)/(IC50: CCB)” value ([3]; Table 2, relative potency compared to CCB) was 21,739.
With `COc1ccc(CCN(C)CCC[C@](C#N)(c2ccc(OC)c(OC)c2)C(C)C)cc1OC` [R-verapamil, (R)-verapamil] the “percentage of binding MT2” value [4] was 0%, the “% Binding MT-1” value ([5]; at 0.1 ×10^−7 M) was 13% and the “% Binding MT-1” value ([5]; at 0.3 ×10^−7 M) was 35%. For the same molecule, the “% Binding MT-1” value ([5]; at 1.0 ×10^−7 M) was 67% and the “% Binding MT-1” value ([5]; at 3.0 ×10^−7 M) was 83%.
Molecule `CCOC(=O)C1=C(C)NC(C)=C(C(=O)OC)C1c1cccc(Cl)c1Cl` (centres unmarked) [Felodipine] has a pIC50 ([3]; Table 1) of 5.89.

From patent US20090023814A1, “COMPOSITIONS AND METHODS HAVING MT1 RECEPTOR ACTIVITY” (AGI Therapeutics Research Ltd., priority 2007, published 2009)
